Results as given in US20210196731A1, “COMPOSITIONS AND METHODS FOR TREATING OCULAR INFLAMMATION AND OCULAR SCARRING” (priority 2018, published 2021).
“Also recorded” adds a separate entry of the source.

Experiments:
αSMA = test: Cellular response to individual exogenous ASA-triggered lipid mediators (αSMA western blot); type: cell-based, human; conditions: 48 hrs
Protocol: Cells were lysed in lysis buffer (PhosphoSafe Extraction Reagent, Novagen) containing a protease inhibitor cocktail (P2714, Sigma-Aldrich). Crude protein lysate was quantified using a Pierce BCA protein assay kit (ThermoFisher, Mississauga, ON) and 10 ug from each sample was resolved using a Novex WedgeWell 4-20% tris-glycine gel (Invitrogen). Using an iBlot Gel Transfer Device (IB1001, Invitrogen), the separated protein was transferred to a nitrocellulose membrane (1B301001, iBlot Transfer Stack, Invitrogen) which was then blocked with 5% (w/v) bovine serum albumin (Sigma-Aldrich) in Tris buffered saline (TBST) for 1 hour at room temperature. The membranes were incubated overnight at 4° C. with primary antibody diluted in TBST containing 5% BSA (w/vol). Primary antibodies used were as follows: collagen 1 (ab138492, Abcam), αSMA (ab5694, Abcam), MMP9 (ab38898, Abcam), PPARγ (sc-7273, SantaCruz Biotechnology), SMAD2/3 (ab63672, Abcam), pSMAD2/3 (ab63399, Abcam) and GAPDH (sc-47724, Santa Cruz Biotechnology, Inc.). After incubation with primary antibodies, the blots were washed and hybridized with 1:3000 (v/v) dilutions of the appropriate goat anti-rabbit or anti-mouse IgG conjugated with horseradish peroxidase ([…], respectively, both from Bio-Rad Laboratories, Inc.). Visualization was accomplished by applying WesternBright Quantum chemiluminescent reagent (Advansta, Inc.), with GAPDH used as a protein loading control. Imaging and relative densiometric quantification was accomplished using a ChemiDoc MP System (Bio-Rad Laboratories, Inc.) connected to Image Lab (Version 6, Bio-Rad Laboratories, Inc.).
From the lipid mediator secretion assays, we see that exposure to ASA or APHS±a PLA2-a results in the generation of significant quantities of pro-resolving products 5-HETE, 11-HETE, 15-HETE and/or 17-OHDHA. The aim of this experiment was to assess the effects (both individually and in combination) of these lipid mediators at mitigating the induction of αSMA by aqueous humor growth factors. To this end, multiple primary HTCF cell lines were cultured in DMEM w/10% FBS in 6-well culture plates, incubated at 37 C and 5% CO2, until 80% confluent. The culture media was removed, wells washed with PBS, and then fresh DMEM w/0% FBS was added. After 24 hrs of serum starvation, one of 14 experimental treatments were applied for 48 hrs: 1) vehicle control (DMEM w/0% FBS), and 2) AHGFs (DMEM w/0% FBS and 2 ng/ml each of TGFB1, TGFB2, VEGF, CCN2), and 3-5) AHGFs/5-HETE (DMEM w/0% FBS, 2 ng/ml each of TGFB1, TGFB2, VEGF, CCN2, and 10, 100, or 1000 nM of 5-hydroxyeicosatetraenoic acid), and 6-8) AHGFs/11-HETE (DMEM w/0% FBS, 2 ng/ml each of TGFB1, TGFB2, VEGF, CCN2, and 10, 100, or 1000 nM of 11-hydroxyeicosatetraenoic acid), and 9-11) AHGFs/15-HETE (DMEM w/0% FBS, 2 ng/ml each of TGFB1, TGFB2, VEGF, CCN2, and 10, 100, or 1000 nM of 15-hydroxyeicosatetraenoic acid), and 12-14) AHGFs/17-OHDHA (DMEM w/0% FBS, 2 ng/ml each of TGFB1, TGFB2, VEGF, CCN2, and 10, 100, or 1000 nM of 17-hydroxy-docosahexaenoic acid). After 48 hrs exposure cellular protein lysate was collected and assessed by western blot with primary antibodies for αSMA and GAPDH, as described previously.

HTCFs [1] = test: Lipid Mediator Secretion Assay II (ASA or APHS with and without gentamicin, LC-MS/MS); type: cell-based, human; conditions: inflammatory cytokine induced HTCFs, gentamicin 250 or 500 μg/ml
Protocol: To this end, as before, multiple primary HTCF cell lines were cultured in DMEM w/10% FBS in 6-well culture plates, incubated at 37° C. and 5% CO2, until 90% confluent. The culture media was removed, wells washed with PBS, and then fresh DMEM w/0% FBS was added. After 24 hrs of serum starvation, fresh DMEM w/0% FBS was added, this time containing a physiologically relevant inflammation/wound healing induction mixture (1 ng/ml each of: IL-1b, TNFa, IFNγ, TGFb). After 12 hrs incubation, the induction media was removed, the wells were washed with PBS and fresh DMEM w/0% FBS was added containing one of ten experimental treatments for an incubation period of 48 hrs: 1) non-induced control (NIC: received DMEM w/0% FBS instead of the induction media), and 2) CytoM1+TGFB1 (DMEM w/0% FBS and 1 ng/ml each of: IL-1b, TNFa, IFNγ, TGFb), and 3) CytoM1/TGFB1/Gent250 (DMEM w/0% FBS, 1 ng/ml each of TGFB1, TGFB2, VEGF, CCN2 and 250 μg/ml gentamicin), and 4) CytoM1/TGFB1/Gent500 (DMEM w/0% FBS, 1 ng/ml each of TGFB1, TGFB2, VEGF, CCN2 and 500 μg/ml gentamicin), and 5) CytoM1/TGFB1/ASA500 (DMEM w/0% FBS, 1 ng/ml each of TGFB1, TGFB2, VEGF, CCN2, and 500 μg/ml ASA), and 6) CytoM1/TGFB1/ASA500/Gent250 (DMEM w/0% FBS, 1 ng/ml each of TGFB1, TGFB2, VEGF, CCN2, 500 μg/ml ASA and 250 μg/ml gentamicin), and 7) CytoM1/TGFB1/ASA1000 (DMEM w/0% FBS, 1 ng/ml each of TGFB1, TGFB2, VEGF, CCN2 and 1000 μg/ml ASA), and 8) CytoM1/TGFB1/ASA1000/Gent500 (DMEM w/0% FBS, 1 ng/ml each of TGFB1, TGFB2, VEGF, CCN2, 1000 μg/ml ASA, and 500 μg/ml gentamicin), and 9) CytoM1/TGFB1/APHS12 (DMEM w/0% FBS, 1 ng/ml each of TGFB1, TGFB2, VEGF, CCN2 and 12 μg/ml o-(acetoxyphenyl)hept-2-ynyl sulfide (APHS), and 10) CytoM1/TGFB1/APHS12/Gent250 (DMEM w/0% FBS, 1 ng/ml each of TGFB1, TGFB2, VEGF, CCN2, 12 μg/ml o-(acetoxyphenyl)hept-2-ynyl sulfide (APHS) and 250 μg/ml gentamicin). At 6, 12, 24 and 48 hrs after addition of the experimental treatments, 250 ul of supernatant was removed from each well, replaced with 250 ul of fresh DMEM w/0% FBS, and stored at −80° C. for subsequent LC-MS/MS analysis. After 48 hrs, the wells were washed with ice cold PBS three times and total cellular protein from the HTCF monolayer was collected for quantification and subsequent western blot analyses. The absolute quantity of protein within each culture well's HTCF monolayer was used as a means to standardize the relative secretion of lipid mediators by HTCFs into the culture well's supernatant.
This is a well-established method to determine the relative activity of cyclooxygenase, acetyl-COX2 and lipoxygenase biosynthetic pathways. In brief, the ratios of the integrated areas of the chromatographic peaks corresponding to each analyte and the integrated areas of the peaks corresponding to each analyte's internal standard (with known absolute quantity) are used to determine the relative quantity of each analyte in a given sample. After supernatant sample collection, 250 ul of methanol containing 100 μg of each deuterated internal standard was added. Samples were then vigorously vortexed and centrifuged at 10,000 g for 10 min before loading onto solid-phase extraction cartridges (Strata-X 33 um Polymeric Reversed Phase, 10 mg, Phenomenex 8B-S100-AAK), that were previously activated with 2 ml methanol and rinsed with 2 ml water. […] After washing with 5 ml water, extracts were eluted with 1 ml methanol. Solvent was then evaporated under vacuum in a SpeedVac centrifuge, and the extract was resuspended in 100 ul acetonitrile/water 60:40 (v/v). An aliquot of 20 ul was injected into the LC-MS/MS system for analysis. […] A Sciex Triple Quad 6500+ mass spectrometer with multiple reaction monitoring was used in negative ion mode. The chromatographic profile of the ion count for each m/z transition was monitored, and the area under the peaks (ion intensity vs elution time) was integrated using commercial software (MultiQuant, Sciex).

[2] = system: human Tenon's capsule fibroblasts (HTCFs); test: Collagen Contraction Assay I (delayed release fibroblast populated collagen lattice); type: cell-based; conditions: gentamicin 1000 μg/ml and/or ASA 2000 μg/ml, 15 minutes twice daily, four day assay, vs vehicle control
Protocol: The delayed release fibroblast populated collagen lattice model was used to assess inhibition of gel contraction [58] by ASA and gentamicin. […] Cell free collagen lattices were prepared identically, however to isolate the effects of HTCFs alone on collagen, constructs without HTCFs were cast as a negative control. The cell-collagen solution was pipetted gently to ensure homogenous distribution of HTCFs while avoiding the production of air bubbles, then 500 ul were pipetted into each well of a 24-well tray. Collagen constructs were allowed to polymerize at 37 C for 45 minutes before adding low serum culture media containing DMEM, 2% Fetal Bovine Serum (FBS), 1% penicillin/streptomycin (P/S).
Tension was allowed to build up within the tethered matrix at 37 C and 5% CO2 for 72 hours before a sterile spatula was used to detach each collagen construct from the edges of the culture well. Plates were then immediately scanned on a flat bed laser scanner and then once per hour for the first 12 hours, then daily for a total of 4 days. The surface area of each collagen construct was measured using ImageJ (NIH) and standardized against the baseline surface area measurement to express changes in area as a percentage of original surface area.
Vehicle control treatment solution comprised of DMEM with 2% FBS and 1% penicillin/streptomycin. The gentamicin treatment solution contained DMEM with 2% FBS, 1% penicillin/streptomycin and 1000 μg/ml gentamicin (w/vol) (Sigma-Aldrich, CAT. NO: G1397). The ASA treatment solution contained DMEM with 2% FBS, 1% penicillin/streptomycin and 2000 μg/ml ASA (w/vol) (Sigma-Aldrich, CAT. NO: A5376). The gentamicin-ASA combination treatment solution (Gent+ASA) contained DMEM with 2% FBS, 1% penicillin/streptomycin, 1000 μg/ml gentamicin (w/vol.) and 2000 μg/ml ASA (w/vo).
Culture media was removed from collagen constructs twice daily and replaced with one of the four treatment solutions for a duration of 15 minutes. […]

HTCFs [3] = test: Collagen Contraction Assay II (dose dependence); type: cell-based, human; conditions: gentamicin alone, 100-1000 μg/ml, four days (FIG. 8A)
Protocol: (§1) The cell-collagen solution was pipetted gently to ensure homogenous distribution of HTCFs while avoiding the production of air bubbles, then 500 ul were pipetted into each well of a 24-well tray. Collagen constructs were allowed to polymerize at 37 C for 45 minutes before adding low serum culture media containing DMEM, 2% Fetal Bovine Serum (FBS), 1% penicillin/streptomycin (P/S).
Tension was allowed to build up within the tethered matrix at 37 C and 5% CO2 for 72 hours before a sterile spatula was used to detach each collagen construct from the edges of the culture well. Plates were then immediately scanned on a flat bed laser scanner once per 24 hours for a total of 4 days. The surface area of each collagen construct was measured using ImageJ (NIH) and standardized against the baseline surface area measurement to express changes in area as a percentage of original surface area.
The gentamicin concentrations assessed were delivered in a solution contained DMEM with 2% FBS, 1% penicillin/streptomycin and either 100, 250, 500, 750 or 100 μg/ml gentamicin (Sigma-Aldrich, CAT. NO: G1397). The ASA concentrations assessed were delivered in a solution of DMEM with 2% FBS, 1% penicillin/streptomycin and either 500, 1000 or 1500 μg/ml ASA (Sigma-Aldrich, CAT. NO: A5376). […]

HTCFs [4] = test: Collagen Contraction Assay IV (AHGF induced, ASA and gentamicin vs mitomycin C); type: cell-based, human; conditions: ASA 1500 μg/ml and/or gentamicin 750 μg/ml; comparator mitomycin C 0.2 mg/ml for 4 minutes
Protocol: as §1
Tension was allowed to build up within the tethered matrix at 37 C and 5% CO2 for 72 hours before a sterile spatula was used to detach each collagen construct from the edges of the culture well. Plates were then immediately scanned on a flat bed laser scanner and then periodically for a total of 4 days. The surface area of each collagen construct was measured using ImageJ (NIH) and standardized against the baseline surface area measurement to express changes in area as a percentage of original surface area.
In this modification of the assay, AHGFs are added to all culture media the collagen constructs are exposed to—from casting of the collagen constructs to the conclusion of contraction. The experimental treatment solutions—all also containing AHGFs—were added 30 minutes prior to detaching the collagen constructs from the culture wells and remained until experimental conclusion. […] DMEM w/2% FBS was added for the remainder of the experiment).

Compound | AHGF-induced expression of αSMA (αSMA; lipid mediator at 100 nM) | AHGF-induced expression of αSMA (αSMA; lipid mediator at 1000 nM) | also measured
CCCCC/C=C\C/C=C\C/C=C\C=C\[C@@H](O)CCCC(=O)O [5-HETE, 5-hydroxyeicosatetraenoic acid] | significantly reduced | significantly reduced | 
CCCCC/C=C\C=C\C(O)C/C=C\C/C=C\CCCC(=O)O (stereo not shown) [11-HETE, 11-hydroxyeicosatetraenoic acid] |  |  | AHGF-induced αSMA expression (αSMA; lipid mediator at 10, 100, or 1000 nM): did not significantly affect AHGF-induced αSMA expression
CCCCC[C@H](O)/C=C/C=C\C/C=C\C/C=C\CCCC(=O)O [15-HETE, 15-hydroxyeicosatetraenoic acid] | significantly reduced |  | 
CC/C=C\CC(O)/C=C/C=C\C/C=C\C/C=C\C/C=C\CCC(=O)O (stereo not shown) [17-OHDHA, 17-hydroxy-docosahexaenoic acid] | significantly reduced | significantly reduced | 
gentamicin |  |  | secretion of PUFA precursors: AA, EPA and DHA (HTCFs [1]): significantly increase the secretion of PUFA precursors; HTCF mediated collagen contraction [2]: did not affect collagen contraction until the second day of the four day assay; HTCF-mediated collagen contraction (HTCFs [3]): no significant treatment effects found; also recorded: no significant effect on HTCF-mediated collagen contraction; AHGF induced, HTCF-mediated collagen contraction (HTCFs [4]): no statistically significant effect on collagen contraction
